For data set [1], the system named is HCV replicon RNA (GenBank Accession No. AJ242654). Briefly: HCV Replicon Assay (replicon RNA reduction and/or Fluc reporter signal). The conditions noted are these: Hepatitis C virus, 72 h, replicon-containing cells cultured with test compound for up to 3 days. It counts as cell-based, Hepatitis C virus. The gist of the method: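 Bicistronic replicon-containing cells cultured with compound for up to 3 days, with interferon as positive control. Inhibition quantified by replicon RNA reduction and/or Fluc reporter signal; IC50 values generally derived from replicon RNA reduction.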

With `Cc1cnc2c(c1)c(C#N)c(-c1ccc(S(=O)(=O)N[C@@H](C)C(F)(F)F)cn1)n2CC1CCC1` [Cpd 496, 6-[3-cyano-1-(cyclobutylmethyl)-5-methyl-1H-pyrrolo[2,3-b]pyridin-2-yl]-N-[(2S)-1,1,1-trifluoropropan-2-yl]pyridine-3-sulfonamide], the melting point was 135 to 139 °C. This molecule also returned an IC50 in data set [1] of less than 500 nM.

`C[C@H](NS(=O)(=O)c1ccc(-c2c(C#N)c3cc(N(C)C)cnc3n2C2CCC2)nc1)C(F)(F)F` [Cpd 497, 6-[3-cyano-1-cyclobutyl-5-(dimethylamino)-1H-pyrrolo[2,3-b]pyridin-2-yl]-N-[(2S)-1,1,1-trifluoropropan-2-yl]pyridine-3-sulfonamide] yielded a melting point of 183 to 185 °C. Besides, the IC50 in data set [1] is less than 500 nM.

As for `CN(C)c1cnc2c(c1)c(C#N)c(-c1ccc(NS(=O)(=O)C(C)(C)C)cc1)n2C1CCC1` [Cpd 498, N-{4-[3-cyano-1-cyclobutyl-5-(dimethylamino)-1H-pyrrolo[2,3-b]pyridin-2-yl]phenyl}-2-methylpropane-2-sulfonamide], the melting point lay within 200 to 202 °C. The IC50 in data set [1] is less than 500 nM.

`CN(C)c1cnc2c(c1)c(C#N)c(-c1ccc(NS(=O)(=O)C3(C)CC3)cc1)n2C1CCC1` [Cpd 499, N-{4-[3-cyano-1-cyclobutyl-5-(dimethylamino)-1H-pyrrolo[2,3-b]pyridin-2-yl]phenyl}-1-methylcyclopropanesulfonamide] showed a melting point of 209 to 213 °C. In data set [1], this molecule showed an IC50 of less than 500 nM.

`C[C@H](NS(=O)(=O)c1ccc(-c2c(C#N)c3cc(N(C)C)cnc3n2C2CCC2)cc1)C(F)(F)F` [Cpd 500, 4-[3-cyano-1-cyclobutyl-5-(dimethylamino)-1H-pyrrolo[2,3-b]pyridin-2-yl]-N-[(2S)-1,1,1-trifluoropropan-2-yl]benzenesulfonamide] returned a melting point of 198 to 200 °C. Further, the IC50 in data set [1] is less than 500 nM.

For `Cc1cnc2c(c1)c(C#N)c(-c1ccc(S(=O)(=O)N[C@@H](C)C(F)(F)F)cn1)n2-c1ccccc1F` [Cpd 501, 6-[3-cyano-1-(2-fluorophenyl)-5-methyl-1H-pyrrolo[2,3-b]pyridin-2-yl]-N-[(2S)-1,1,1-trifluoropropan-2-yl]pyridine-3-sulfonamide], the melting point was 128 °C (dec.). In data set [1], this molecule registered an IC50 of less than 500 nM.

For the molecule `Cc1cnc2c(c1)c(C#N)c(-c1ccc(S(=O)(=O)N[C@@H](C)C(F)(F)F)cn1)n2-c1cccc(F)c1` [Cpd 502, 6-[3-cyano-1-(3-fluorophenyl)-5-methyl-1H-pyrrolo[2,3-b]pyridin-2-yl]-N-[(2S)-1,1,1-trifluoropropan-2-yl]pyridine-3-sulfonamide], the melting point lay within 238 to 240 °C. Besides, the IC50 in data set [1] is less than 500 nM.

`Cc1cnc2c(c1)c(C#N)c(-c1ccc(S(=O)(=O)N[C@@H](C)C(F)(F)F)cn1)n2-c1ccc(F)cc1` [Cpd 503, 6-[3-cyano-1-(4-fluorophenyl)-5-methyl-1H-pyrrolo[2,3-b]pyridin-2-yl]-N-[(2S)-1,1,1-trifluoropropan-2-yl]pyridine-3-sulfonamide]: the melting point is 253 to 254 °C. Besides, the IC50 in data set [1] is less than 500 nM.

For the molecule `Cc1cnc2c(c1)c(C#N)c(-c1ccc(S(=O)(=O)N[C@@H](C)C(F)(F)F)cn1)n2-c1cc(F)ccc1F` [Cpd 504, 6-[3-cyano-1-(2,5-difluorophenyl)-5-methyl-1H-pyrrolo[2,3-b]pyridin-2-yl]-N-[(2S)-1,1,1-trifluoropropan-2-yl]pyridine-3-sulfonamide], the melting point lay in the range of 232 to 234 °C. Further, the half-maximal inhibitory concentration (IC50) in data set [1] was less than 500 nM.

Take `Cc1cnc2c(c1)c(C#N)c(-c1ccc(S(=O)(=O)N[C@@H](C)C(F)(F)F)cn1)n2-c1ccc(F)c(F)c1` [Cpd 505, 6-[3-cyano-1-(3,4-difluorophenyl)-5-methyl-1H-pyrrolo[2,3-b]pyridin-2-yl]-N-[(2S)-1,1,1-trifluoropropan-2-yl]pyridine-3-sulfonamide]: the melting point was in the range of 250 to 252 °C. Also, the IC50 in data set [1] is less than 500 nM.

For the molecule `Cc1cnc2c(c1)c(C#N)c(-c1ccc(S(=O)(=O)N[C@@H](C)C(F)(F)F)cn1)n2-c1cc(F)cc(F)c1` [Cpd 506, 6-[3-cyano-1-(3,5-difluorophenyl)-5-methyl-1H-pyrrolo[2,3-b]pyridin-2-yl]-N-[(2S)-1,1,1-trifluoropropan-2-yl]pyridine-3-sulfonamide], the melting point was 260 to 262 °C. This molecule gave an IC50 in data set [1] of less than 500 nM.

Take `Cc1cnc2c(c1)c(C#N)c(-c1ccc(S(=O)(=O)N[C@@H](C)C(F)(F)F)cn1)n2-c1cscn1` [Cpd 507, 6-[3-cyano-5-methyl-1-(1,3-thiazol-4-yl)-1H-pyrrolo[2,3-b]pyridin-2-yl]-N-[(2S)-1,1,1-trifluoropropan-2-yl]pyridine-3-sulfonamide]: the melting point was 186 to 188 °C. The half-inhibitory concentration (IC50) in data set [1] is less than 500 nM.

Consider `Cc1cnc2c(c1)c(C#N)c(-c1ccc(S(=O)(=O)N[C@@H](C)C(F)(F)F)cn1)n2-c1cc(C#N)ncn1` [Cpd 508, 6-[3-cyano-1-(6-cyanopyrimidin-4-yl)-5-methyl-1H-pyrrolo[2,3-b]pyridin-2-yl]-N-[(2S)-1,1,1-trifluoropropan-2-yl]pyridine-3-sulfonamide], for which the melting point was in the range of 120 to 122 °C. Also, in data set [1], the IC50 is less than 500 nM.

Turning to `CCc1cnc2c(c1)c(C#N)c(-c1ccc(S(=O)(=O)N[C@@H](C)C(F)(F)F)cn1)n2-c1cccs1` [Cpd 509, 6-[3-cyano-5-ethyl-1-(thiophen-2-yl)-1H-pyrrolo[2,3-b]pyridin-2-yl]-N-[(2S)-1,1,1-trifluoropropan-2-yl]pyridine-3-sulfonamide], the melting point lay within 169 to 171 °C. In data set [1], this molecule displayed an IC50 of less than 500 nM.

Consider `CCc1cnc2c(c1)c(C#N)c(-c1ccc(S(=O)(=O)N[C@@H](C)C(F)(F)F)cn1)n2-c1ccc(F)cc1` [Cpd 510, 6-[3-cyano-5-ethyl-1-(4-fluorophenyl)-1H-pyrrolo[2,3-b]pyridin-2-yl]-N-[(2S)-1,1,1-trifluoropropan-2-yl]pyridine-3-sulfonamide], for which the melting point lay in the range of 212 to 214 °C. In data set [1], this molecule showed an IC50 of less than 500 nM.

In the case of `CCc1cnc2c(c1)c(C#N)c(-c1ccc(S(=O)(=O)N[C@@H](C)C(F)(F)F)cn1)n2-c1cccc(F)c1` [Cpd 511, 6-[3-cyano-5-ethyl-1-(3-fluorophenyl)-1H-pyrrolo[2,3-b]pyridin-2-yl]-N-[(2S)-1,1,1-trifluoropropan-2-yl]pyridine-3-sulfonamide], the melting point was in the range of 195 to 197 °C. In data set [1], this molecule returned an IC50 of less than 500 nM.

Consider `CCc1cnc2c(c1)c(C#N)c(-c1ccc(S(=O)(=O)N[C@@H](C)C(F)(F)F)cn1)n2-c1nccs1` [Cpd 512, 6-[3-cyano-5-ethyl-1-(1,3-thiazol-2-yl)-1H-pyrrolo[2,3-b]pyridin-2-yl]-N-[(2S)-1,1,1-trifluoropropan-2-yl]pyridine-3-sulfonamide], for which the melting point lay within 229 to 231 °C. Also, the 50% inhibitory concentration (IC50) in data set [1] is less than 500 nM.

Turning to `[2H]C(C)(C)NS(=O)(=O)c1ccc(-c2c(C#N)c3cc(C(F)(F)F)cnc3n2C2CCC2)nc1` [Cpd 513, 6-[3-cyano-1-cyclobutyl-5-(trifluoromethyl)-1H-pyrrolo[2,3-b]pyridin-2-yl]-N-[(2-deuterium)propan-2-yl]pyridine-3-sulfonamide], the melting point was in the range of 191 to 193 °C. This molecule also displayed an IC50 in data set [1] of less than 500 nM.

In turn, `Cc1cnc2c(c1)c(C#N)c(-c1ccc(S(=O)(=O)N[C@@H](C)C(F)(F)F)cn1)n2-c1nc(C#N)cs1` [Cpd 514, 6-[3-cyano-1-(4-cyano-1,3-thiazol-2-yl)-5-methyl-1H-pyrrolo[2,3-b]pyridin-2-yl]-N-[(2S)-1,1,1-trifluoropropan-2-yl]pyridine-3-sulfonamide] gave a melting point of 259 to 261 °C. The same molecule had an IC50 in data set [1] of 500 to 2000 nM.

`CC(C)(C)NS(=O)(=O)c1ccc(-c2c(C#N)c3cc(Cl)cnc3n2-c2nccs2)nc1` [Cpd 515, N-tert-butyl-6-[5-chloro-3-cyano-1-(1,3-thiazol-2-yl)-1H-pyrrolo[2,3-b]pyridin-2-yl]pyridine-3-sulfonamide] registered a melting point of 216 to 218 °C. In data set [1], this molecule registered an IC50 of less than 500 nM.

On to `CC(C)(C)NS(=O)(=O)c1ccc(-c2c(C#N)c3cc(C(F)(F)F)cnc3n2-c2ccccc2)nc1` [Cpd 516, N-tert-butyl-6-[3-cyano-1-phenyl-5-(trifluoromethyl)-1H-pyrrolo[2,3-b]pyridin-2-yl]pyridine-3-sulfonamide], for which the melting point fell in the range of 201.2 to 202.4 °C. Moreover, in data set [1], the IC50 is less than 500 nM.

The molecule `CC(C)(C)NS(=O)(=O)c1ccc(-c2c(C#N)c3cc(C(F)(F)F)cnc3n2-c2ccc(F)cc2)nc1` [Cpd 517, N-tert-butyl-6-[3-cyano-1-(4-fluorophenyl)-5-(trifluoromethyl)-1H-pyrrolo[2,3-b]pyridin-2-yl]pyridine-3-sulfonamide] displayed a melting point of 228.3 to 229.4 °C. This molecule also returned an IC50 in data set [1] of 500 to 2000 nM.

Molecule `CC(C)(C)NS(=O)(=O)c1ccc(-c2c(C#N)c3cc(C(F)(F)F)cnc3n2-c2ccccn2)nc1` [Cpd 518, N-tert-butyl-6-[3-cyano-1-(pyridin-2-yl)-5-(trifluoromethyl)-1H-pyrrolo[2,3-b]pyridin-2-yl]pyridine-3-sulfonamide] displayed a melting point of 210.4 to 211.8 °C. This molecule also showed an IC50 in data set [1] of less than 500 nM.

The molecule `CC(C)(C)NS(=O)(=O)c1ccc(-c2c(C#N)c3cc(F)cnc3n2-c2ccccc2)nc1` [Cpd 519, N-tert-butyl-6-(3-cyano-5-fluoro-1-phenyl-1H-pyrrolo[2,3-b]pyridin-2-yl)pyridine-3-sulfonamide] registered a melting point of 239.4 to 241.5 °C. This molecule came in with an IC50 in data set [1] of less than 500 nM.

As to `CC(C)(C)NS(=O)(=O)c1ccc(-c2c(C#N)c3cc(F)cnc3n2-c2ccc(F)cc2)nc1` [Cpd 520, N-tert-butyl-6-[3-cyano-5-fluoro-1-(4-fluorophenyl)-1H-pyrrolo[2,3-b]pyridin-2-yl]pyridine-3-sulfonamide], the melting point lay in the range of 259.1 to 260.7 °C. The molecule also came in with an IC50 in data set [1] of 2000 to 5000 nM.
